From ChEMBL document CHEMBL3879889, “Compositions and methods for treating cancer” (2009)
The source made the active and inactive calls. The rule behind the calls is not given here.

Assays:
[1] = Inhibition of HPV E6 protein interaction with PSD95 PDZ domain3 (unknown origin)
[2] = Upregulation of p53 expression in HPV18 E6 transformed human HeLa cells at 80 to 120 uM after 24 hrs by immunocytochemical analysis relative to control; type: functional, cell-based
3Y1 [3] = test: Antimigratory activity in rat 3Y1 cells transfected with pBLAST E6-16 at 40 uM after 24 hrs; type: functional, cell-based
[4] = Cytotoxicity against HPV E6 transformed human SiHa cells assessed as cell viability at 60 uM treated 24 hrs post plating by WST-1 assay relative to control; type: functional; settings: read-out: Activity
[5] = Cytotoxicity against HPV negative human C33A assessed as cell viability at 60 uM treated 24 hrs post plating by WST-1 assay relative to control; parameters: species or system C-33-A; settings: C33A cells (HPV negative), read-out: Activity
[6] = Inhibition of HPV E6 protein interaction with shank1 (unknown origin)
[7] = Inhibition of HPV E6 protein interaction with PSD95 PDZ domain1 (unknown origin)
HeLa = test: Induction of morphological changes in HPV18 E6 transformed human HeLa cells assessed as cell shrinkage at 80 to 120 uM after 24 hrs; type: functional, cell-based
[8] = Inhibition of HPV E6 protein interaction with MAGI-1 PDZ domain1 (unknown origin)
[9] = Cytotoxicity against HPV E6 transformed human HeLa cells assessed as cell viability at 60 uM treated 24 hrs post plating by WST-1 assay relative to control; type: functional; settings: read-out: Activity
[10] = Antiproliferative activity in rat 3Y1 cells transfected with pBLAST at 40 uM after 24 to 96 hrs; type: cell-based; settings: 3y1, 40 µM
[11] = Inhibition of HPV E6 protein interaction with Tip1 (unknown origin)
3Y1 [12] = test: Antiproliferative activity in rat 3Y1 cells transfected with pBLAST E6-16 at 40 uM after 24 to 96 hrs; type: functional, cell-based
[13] = Inhibition of HPV E6 protein interaction with PSD95 PDZ domain2 (unknown origin)
[14] = Downregulation of E6 protein expression in HPV18 E6 transformed human HeLa cells at 60 to 120 uM after 24 hrs by Western blot method; type: functional, cell-based

SMILES: CCc1cccc2c(C(c3ccccc3OCC(=O)O)c3c[nH]c4c(CC)cccc34)c[nH]c12
- IC50 [1]: > 250 µM
- Activity [2]: Active
- Activity (3Y1 [3]): Active
- viability at 60 µM [4]: 74.3%
- viability at 24 h, 60 µM [5]: 104%
- IC50 [6]: > 250 µM
- IC50 [7]: > 250 µM
- Activity (HeLa): Active
- IC50 [8]: 86.9 µM
- viability at 60 µM [9]: 70.1%
- Activity [10]: Non-Toxic
- IC50 [11]: > 250 µM
- Activity (3Y1 [12]): Active
- IC50 [13]: > 250 µM
- Activity [14]: Active
